How the values were obtained:
Test in all cases: relative viability (nuclei count vs DMSO), 5 days (fraction); higher = more cells survive
[1] = compound: CC1=C(CC(=O)O)c2cc(F)ccc2/C1=C\c1ccc([S+](C)[O-])cc1 [Sulindac] + CS(=O)(=O)N1CCN(Cc2cc3nc(-c4cccc5[nH]ncc45)nc(N4CCOCC4)c3s2)CC1 [Pictilisib] (partner 1 µM)
Method in brief: (§1)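 Cells from lung cancer lines were seeded into 1536-well plates and, one day later, dosed by pin tool. Treatments were either a single drug or a fixed dose of an anchor drug with five library-drug doses (not always all listed) in √10 steps. After 5 days, nuclei were stained in a one-step fixation (final 0.05% Triton X-100, 1% formaldehyde, 1 ug/ml Hoechst) and counted on 4× images, and relative viability is the treated-to-vehicle nuclei ratio, as the median of duplicate plates.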

[2] = compound: O=c1[nH]cc(F)c(=O)[nH]1 [5-Fluorouracil] + CC(=O)Nc1cccc(-n2c(=O)n(C3CC3)c(=O)c3c(Nc4ccc(I)cc4F)n(C)c(=O)c(C)c32)c1 [Trametinib] (partner 0.02 µM)
Method in brief: as §1

[3] = compound: O=c1[nH]cc(F)c(=O)[nH]1 [5-Fluorouracil] + CC(=O)c1c(C)c2cnc(Nc3ccc(N4CCNCC4)cn3)nc2n(C2CCCC2)c1=O [Palbociclib] (partner 0.5 µM)
Method in brief: as §1

[4] = compound: O=c1[nH]cc(F)c(=O)[nH]1 [5-Fluorouracil] + NC(=O)Nc1cc(-c2cccc(F)c2)sc1C(=O)N[C@H]1CCCNC1 [AZD7762] (partner 0.2 µM)
Method in brief: as §1

| Cell Line | relative viability ([1]; first compound 0.08 µM) | relative viability ([1]; first compound 0.253 µM) | relative viability ([1]; first compound 0.8 µM) | relative viability ([1]; first compound 2.53 µM) | relative viability ([1]; first compound 8 µM) | relative viability ([2]; first compound 0.02 µM) | relative viability ([2]; first compound 0.2 µM) | relative viability ([2]; first compound 0.6325 µM) | relative viability ([2]; first compound 2 µM) | relative viability ([3]; first compound 0.02 µM) | relative viability ([3]; first compound 0.2 µM) | relative viability ([3]; first compound 0.6325 µM) | relative viability ([3]; first compound 2 µM) | relative viability ([4]; first compound 0.02 µM) | relative viability ([4]; first compound 0.2 µM) | relative viability ([4]; first compound 0.6325 µM) | relative viability ([4]; first compound 2 µM) |
| --- | --- | --- | --- | --- | --- | --- | --- | --- | --- | --- | --- | --- | --- | --- | --- | --- | --- |
| LXF-289 | 0.955 | 0.796 | 0.769 | 0.823 | 0.848 | 0.674 | 0.591 | 0.346 | 0.33 | 0.596 | 0.578 | 0.312 | 0.283 | 1.1 | 0.495 | 0.342 | 0.313 |
| NCI-H23 | 0.423 | 0.525 | 0.387 | 0.536 | 0.517 | 0.483 | 0.331 | 0.285 | 0.211 | 0.527 | 0.551 | 0.325 | 0.245 | 0.142 | 0.208 | 0.163 | 0.172 |
| NCI-H358 | 0.262 | 0.324 | 0.316 | 0.269 | 0.352 | 0.17 | 0.124 | 0.123 | 0.137 | 0.157 | 0.146 | 0.15 | 0.177 | 0.595 | 0.505 | 0.477 | 0.293 |
| NCI-H441 | 0.627 | 0.452 | 0.373 | 0.469 | 0.603 | 0.567 | 0.499 | 0.402 | 0.38 | 0.238 | 0.264 | 0.178 | 0.249 | 1.18 | 0.857 | 0.402 | 0.317 |
| NCI-H460 | 0.366 | 0.359 | 0.219 | 0.381 | 0.394 | 0.219 | 0.144 | 0.0819 | 0.0387 | 0.236 | 0.167 | 0.046 | 0.045 | 0.678 | 0.332 | 0.0757 | 0.0672 |
| NCI-H647 | 0.49 | 0.422 | 0.435 | 0.419 | 0.735 | 0.444 | 0.479 | 0.406 | 0.393 | 0.343 | 0.516 | 0.308 | 0.358 | 0.448 | 0.588 | 0.402 | 0.333 |
| NCI-H650 | 0.839 | 0.889 | 0.785 | 0.915 | 0.912 | 0.914 | 0.701 | 0.407 | 0.341 | 0.316 | 0.278 | 0.244 | 0.263 | 0.883 | 0.464 | 0.328 | 0.422 |
| NCI-H727 | 0.46 | 0.252 | 0.381 | 0.404 | 0.349 | 0.361 | 0.384 | 0.363 | 0.389 | 0.839 | 0.685 | 0.745 | 0.607 | 0.697 | 0.718 | 0.527 | 0.605 |
| NCI-H838 | 0.519 | 0.466 | 0.377 | 0.426 | 0.603 | 0.482 | 0.579 | 0.373 | 0.246 | 0.196 | 0.223 | 0.19 | 0.174 | 0.915 | 0.684 | 0.654 | 0.642 |
| NCI-H1355 | 0.458 | 0.407 | 0.36 | 0.39 | 0.448 | 0.443 | 0.387 | 0.265 | 0.242 | 0.41 | 0.364 | 0.241 | 0.207 | 0.673 | 0.37 | 0.231 | 0.198 |
| NCI-H1395 | 0.705 | 0.603 | 0.872 | 0.527 | 0.879 | 1.03 | 0.987 | 1.12 | 1.11 | 0.538 | 0.692 | 0.641 | 0.609 | 0.395 | 0.405 | 0.459 | 0.385 |
| NCI-H1437 | 0.417 | 0.504 | 0.405 | 0.386 | 0.489 | 0.364 | 0.247 | 0.22 | 0.18 | 0.306 | 0.221 | 0.161 | 0.225 | 0.34 | 0.199 | 0.17 | 0.116 |
| NCI-H1651 | 0.751 | 0.672 | 0.416 | 0.621 | 0.599 | 0.879 | 0.684 | 0.325 | 0.267 | 0.512 | 0.467 | 0.283 | 0.272 | 0.458 | 0.234 | 0.186 |  |
| NCI-H1666 |  | 0.442 | 0.318 | 0.392 | 0.56 | 0.891 | 0.714 | 0.601 | 0.56 | 0.677 | 0.642 | 0.647 | 0.609 | 0.708 | 0.389 | 0.462 | 0.426 |
| NCI-H1734 | 0.466 | 0.498 | 0.413 | 0.48 | 0.515 | 0.709 | 0.682 | 0.584 | 0.415 | 0.349 | 0.346 | 0.271 | 0.264 | 0.539 | 0.613 | 0.54 | 0.314 |
| NCI-H1755 | 0.434 | 0.419 | 0.304 | 0.362 | 0.507 | 0.796 | 0.688 | 0.417 | 0.37 | 0.448 | 0.501 | 0.409 | 0.376 | 0.4 | 0.31 | 0.285 | 0.28 |

Source: the supplement of paper PMC10307832
